Patent US6043246A, “Urea derivatives” (Banyu Pharmaceutical Co., Ltd., priority 1996, dated 2000)

Target: T1, human NPY Y5 receptor (Homo sapiens, UniProt Q15761)
T1 construct: expressed in transfected cells; host or cells: COS-7, CHO and LM(tk-) cells (ATCC); vectors pcDNA3, pRc/RSV, pCI-neo; membrane preparations
T1 sequence (Q15761 1-445): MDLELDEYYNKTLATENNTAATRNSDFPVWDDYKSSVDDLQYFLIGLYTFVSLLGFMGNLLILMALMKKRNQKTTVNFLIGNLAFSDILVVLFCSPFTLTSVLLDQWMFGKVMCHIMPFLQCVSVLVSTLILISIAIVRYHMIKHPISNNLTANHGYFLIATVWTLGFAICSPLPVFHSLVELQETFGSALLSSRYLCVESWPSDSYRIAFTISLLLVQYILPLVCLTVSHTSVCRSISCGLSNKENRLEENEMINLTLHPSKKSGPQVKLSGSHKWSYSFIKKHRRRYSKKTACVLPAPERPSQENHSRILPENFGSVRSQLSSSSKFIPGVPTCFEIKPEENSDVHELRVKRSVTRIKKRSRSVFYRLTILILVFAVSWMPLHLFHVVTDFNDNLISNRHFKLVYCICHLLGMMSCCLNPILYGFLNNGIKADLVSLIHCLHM
Assay: Test of Inhibition of NPY Binding ([125I] peptide YY binding to membrane preparations)
Details: membranes of cells expressing NPY Y5 receptor, 25° C., 2 hours, read-out: concentration needed to inhibit 50% of the specific binding of peptide YY (IC50 value)
From the text: cDNA Sequence encoding a human NPY Y5 receptor [International Publication WO 96/16542] was cloned into expression vectors pcDNA3, pRc/RSV (manufactured by Invitrogen) and pCI-neo (manufactured by Promega). Using the cationic lipid method [see Proceedings of the National Academy of Science of the United States of America, vol.84, p.7413 (1987)], host cells COS-7, CHO and LM(tk-) (American Type Culture Collection) were transfected with the thus prepared expression vectors to obtain cells in which the NPY Y5 receptor had been expressed.
Each of the membrane preparations thus prepared from the cells in which the NPY Y5 receptor had been expressed was incubated together with each compound to be tested and 20,000 cpm of [^125 I] peptide YY (manufactured by Amersham) at 25° C. for 2 hours in an assay buffer solution (25 mM HEPES buffer, pH 7.4, containing 10 mM magnesium chloride, 1 mM phenylmethylsulfonyl fluoride and 0.1% bacitracin) and then, the reaction mixture was filtered through a glass filter GF/C. After washing with 50 mM Tris buffer, pH 7.4, containing 0.3% BSA, radioactivity on the glass filter was measured using a gamma counter. […] As the result, IC50 value of the compound of Example 17 was calculated to be […].

IC50: 27 nM
Structure (SMILES): COc1ccc(-c2cc(NC(=O)N3CCN(c4cccc(Cl)c4)CC3)[nH]n2)cc1 [Example 17, 3-[4-(3-chlorophenyl)piperazinyl]carbonylamino-5-(4-methoxyphenyl)pyrazole]
